From US8501715B2, “Oxidized lipids and uses thereof in the treatment of inflammatory diseases and disorders” (Vascular Biogenics Ltd., priority 2003, dated 2013)

Key:
Apo-E KO mice [1] = test: Assessment of atherosclerosis: lesion area in the aortic sinus; assay type: in vivo, mouse; settings: oral 1 mg/mouse
Apo-E KO mice [2] = test: Aorta lesion (% from total area); assay type: in vivo; settings: oral 1 mg/mouse, 5 feedings every other day every 4 weeks over 12 weeks; 24.5 week old mice; End
Excerpt: Assessment of Atherosclerosis: Quantification of atherosclerotic fatty streak lesions was done by calculating the lesion size in the aortic sinus as previously described (Paigen et al. Quantitative assessment of atherosclerotic lesions in mice. Atherosclerosis 1987; 68: […]) and by calculating the lesion size in the aorta. Briefly, after perfusion with saline Tris EDTA, the heart and the aorta were removed from the animals and the peripheral fat cleaned carefully. The upper section of the heart was embedded in OCT medium (10.24% w/w polyvinyl alcohol; 4.26% w/w polyethylene glycol; 85.50 w/w nonreactive ingredients) and frozen. […] Sections were evaluated for fatty streak lesions after staining with oil-red O. Lesion areas per section were scored on a grid (Rubin et al. Inhibition of early atherogenesis in transgenic mice by human apoplipoprotein A-I. Nature 1991; 353: 265-267) by an observer counting unidentified, numbered specimens. […]
Their effect on the triglyceride and cholesterol fractions of VLDL was also monitored by FPLC. […]
(§1) Mice were bled prior to feeding (Time 0), after the 2nd set of feeding and at the conclusion of the experiment (End) for determination of lipid profile, lipid fractionation and plasma collection. Atherosclerosis was assessed as described above in the aorta sinus and aorta. […] Weight was recorded every 2 weeks throughout the experiment. […]

[3] = system: T-cells from inguinal lymph node; test: Proliferation assay (stimulation index) of lymph node cells exposed to Human ox-LDL; assay type: in vivo; settings: oral 1 mg/mouse every other day for 5 days
Procedure: 6 week old male Apo-E KO mice were fed either 1 mg/mouse L-ALLE (L-ALLE) (n=2) or POVPC (POVPC) (n=3) in 0.2 ml PBS; or PBS alone (CONTROL) (n=3) every other day for 5 days. One week following the last feeding the mice were immunized with a single subcutaneous injection of 50 μg Human oxidized LDL antigen. 7 days later T-cells from inguinal lymph node were prepared as described in Materials and Methods section that follows, and exposed to the sensitizing Human ox-LDL antigen for in-vitro assessment of proliferation. Proliferation, indicating immune reactivity, is expressed as the ratio between incorporation of labeled thymidine into the T-cell's DNA in the presence and absence of human ox-LDL antigen (stimulation index, S.I.).
II. […]
Proliferation was assayed eight days after immunization with the oxidized LDL as follows: Spleens or lymph nodes were prepared by meshing the tissues on 100 mesh screens. […] Incomplete medium was added (10 ml), cells were centrifuge for 7 minutes at 1,700 rpm, resuspended in RPMI medium and counted in a haemocytometer at 1:20 dilution (10 μl cells+190 μl Trypan Blue). Proliferation was measured by the incorporation of [^3H]-Thymidine into DNA in triplicate samples of 100 μl of the packed cells (2.5×10^6 cells/ml) in a 96 well microtiter plate. […]

[4] = FPLC analysis of triglyceride and cholesterol content of VLDL; assay type: in vivo; settings: oral 1 mg/mouse, 3 sets over 12 weeks; measured 9 weeks from t=0; FPLC of pooled blood
Procedure: (§2) 24.5 weeks old Apo-E KO mice were fed 1 mg/mouse L-ALLE (triangle) (n=11), D-ALLE (inverted triangle) (n=9) or POVPC (square) (n=10) every other day for 5 days, at 4 weeks intervals over a 12 weeks period. Control mice were fed an identical volume (0.2 ml) and regimen of PBS (circle) (n=10). Triglyceride content (Tg, mg/ml) was measured 9 weeks from t=0, by enzymatic colorimetric method in the VLDL fractions following separation of pooled blood samples on FPLC, as described in the materials and methods section that follows.
as §2, with “Cholesterol” for “Triglyceride”, “(Cholesterol,” for “(Tg,”
FPLC Analysis: Fast Protein Liquid Chromatography analysis of cholesterol and lipid content of lipoproteins was performed using Superose 6 HR 10/30 column (Amersham Pharmacia Biotech, Inc, Peapack, N.J.) on a FPLC system (Pharmacia LKB. FRAC-200, Pharmacia, Peapack, N.J.). A minimum sample volume of 300 μl (blood pooled from 3 mice was diluted 1:2 and filtered before loading) was required in the sampling vial for the automatic sampler to completely fill the 200 μl sample loop. Fractions 10-40 were collected, each fraction contained 0.5 ml. A 250 μl sample from each fraction was mixed with freshly prepared cholesterol reagent or triglyceride reagent respectively, incubated for 5 minutes at 37° C. and assayed spectrophotometrically at 500 nm.
Their effect on the triglyceride and cholesterol fractions of VLDL was also monitored by FPLC. […] male, 24.5 week old Apo-E KO mice were divided into 5 groups. In group A (n=11) mice were fed with 1 mg/mouse L-ALLE suspended in 0.2 ml PBS, administered by gavage, as described above, every other day for 5 days. In group B (n=9) mice were fed with 1 mg/mouse D-ALLE suspended in 0.2 ml PBS, administered per os, as described above, every other day for 5 days. In group C (n=10) mice were fed with 1 mg/mouse POVPC suspended in 0.2 ml PBS, administered by gavage, as described above, every other day for 5 days. […]
as §1

apoE(−/−) mice = settings: administration of alpha-galactosylceramide; Tupin et al.; cited from earlier work
apoE(−/−)CD1d(−/−) mice = settings: administration of alpha-galactosylceramide; Tupin et al.; cited from earlier work

SMILES | Sinus Lesion (Apo-E KO mice [1]; 5 feedings every other day every 4 weeks over 12 weeks, 24.5 week old mice, End (12 weeks after first feeding)) [μm^2] | protection from atheromatous progression (Apo-E KO mice [1]; late stage, compared with lesion scores at 24.5 weeks) | Aorta lesion (% from total area) (Apo-E KO mice [2]) | change of Stimulation Index versus PBS ([3]; then immunization with Human oxidized LDL) [%] | Stimulation Index (SI) ([3]; then s.c. immunization with Human oxidized LDL, lymph nodes one week later) | cholesterol content of VLDL [4] | triglyceride content of VLDL [4] | increase in lesion size (apoE(−/−) mice) [%] | Lesion size (apoE(−/−)CD1d(−/−) mice)
CCCCCCCCCCCCCCCCOC[C@@H](COP(=O)([O-])OCC[N+](C)(C)C)OCCCCC=O [L-ALLE, 3-hexadecyl-2-(5′-oxo-pentanyl)-sn-glycero-1-phosphocholine] | 233056 ± 12746 | nearly complete protection | 5.4 | −78 | 7.3 ± 2.3 | reduction | reduction |  | 
CCCCCCCCCCCCCCCCCCCCCCCCCC(=O)N[C@@H](CO[C@H]1O[C@H](CO)[C@H](O)[C@H](O)[C@H]1O)[C@H](O)[C@H](O)CCCCCCCCCCCCCC [alpha-galactosylceramide] |  |  |  |  |  |  |  | 50 | did not affect lesion size
